≈ marks a conversion by molar mass, not a printed value.
Key:
Type in all cases: functional, cell-based
KB [1] = experiment: Cytotoxicity against multidrug-resistant human KB-VCR cells after 2 days by sulforhodamine B assay; conditions: 48 h
KB [2] = experiment: Cytotoxicity against human KB cells after 2 days by sulforhodamine B assay; conditions: 48 h
A549 = experiment: Cytotoxicity against human A549 cells after 2 days by sulforhodamine B assay; conditions: A549, 48 h

Row | Structure (SMILES) | IC50 (KB [1]) | IC50 (KB [2]) | IC50 (A549)
1 | CCOc1ccc(/C=C/C(C)=O)cc1OC | 8 µg/mL (≈ 36.3 µM) | 5.5 µg/mL (≈ 25 µM) | > 10 µg/mL
2 | CCOc1cccc(/C=C/C(C)=O)c1O | 1.9 µg/mL (≈ 9.21 µM) | 2 µg/mL (≈ 9.7 µM) | 2.3 µg/mL (≈ 11.2 µM)
3 | C/C=C/COc1ccc(/C=C/C(C)=O)cc1OC | 3.4 µg/mL (≈ 13.8 µM) | 4.8 µg/mL (≈ 19.5 µM) | 6.8 µg/mL (≈ 27.6 µM)
4 | C=CCOc1ccc(/C=C/C)cc1OC | > 10 µg/mL | > 10 µg/mL | –
5 | COc1ccc(/C=C/C(C)=O)cc1OC | 7.8 µg/mL (≈ 37.8 µM) | 8.6 µg/mL (≈ 41.7 µM) | 8 µg/mL (≈ 38.8 µM)
6 | COc1cccc(/C=C/C(=O)c2ccccc2)c1O | 1.3 µg/mL (≈ 5.11 µM) | 2.4 µg/mL (≈ 9.44 µM) | 0.6 µg/mL (≈ 2.36 µM)
7 | COc1cc(/C=C/C(=O)c2ccccc2)ccc1O | 1.9 µg/mL (≈ 7.47 µM) | 3.5 µg/mL (≈ 13.8 µM) | 2.3 µg/mL (≈ 9.04 µM)
8 | COc1cccc(/C=C/C(C)=O)c1O | 2 µg/mL (≈ 10.4 µM) | 3.8 µg/mL (≈ 19.8 µM) | 2.5 µg/mL (≈ 13 µM)
9 | COc1ccc(/C=C/C(C)=O)cc1O | 8.2 µg/mL (≈ 42.7 µM) | 10 µg/mL (≈ 52 µM) | > 10 µg/mL
10 | CCOc1cc(/C=C/C(C)=O)ccc1O | 7.8 µg/mL (≈ 37.8 µM) | 7.7 µg/mL (≈ 37.3 µM) | 8.5 µg/mL (≈ 41.2 µM)
11 | C/C=C/c1ccc(OCC=C(C)C)c(OC)c1 | > 10 µg/mL | > 10 µg/mL | –
12 | C=CCOc1ccc(/C=C/C(C)=O)cc1OC | 5 µg/mL (≈ 21.5 µM) | 6.8 µg/mL (≈ 29.3 µM) | 5.8 µg/mL (≈ 25 µM)
13 | C/C=C/c1ccc(OC)c(OC)c1 [METHYLISOEUGENOL] | > 10 µg/mL | > 10 µg/mL | –
14 | COc1cc(/C=C/C(C)=O)ccc1OC/C=C(\C)CC/C=C(\C)CCC=C(C)C | 7.4 µg/mL (≈ 18.7 µM) | 6.5 µg/mL (≈ 16.4 µM) | 7.4 µg/mL (≈ 18.7 µM)
15 | C/C=C/c1ccc(OCCC(C)C)c(OC)c1 | > 10 µg/mL | > 10 µg/mL | –
16 | COc1cc(/C=C/C(C)=O)ccc1O [DEHYDROZINGERONE] | > 10 µg/mL | > 10 µg/mL | > 10 µg/mL
17 | CC(=O)/C=C/c1cccc(F)c1O | 3 µg/mL (≈ 16.7 µM) | 2.1 µg/mL (≈ 11.7 µM) | 3 µg/mL (≈ 16.7 µM)
18 | COc1cc(/C=C/C(C)=O)ccc1OC/C=C(\C)CCC=C(C)C | 3.3 µg/mL (≈ 10 µM) | 2.2 µg/mL (≈ 6.7 µM) | 3.4 µg/mL (≈ 10.4 µM)
19 | COc1ccc(/C=C/C(C)=O)cc1F | 5 µg/mL (≈ 25.7 µM) | 4.3 µg/mL (≈ 22.1 µM) | 5.5 µg/mL (≈ 28.3 µM)
20 | COc1cccc2c1C(=O)c1c(O)c3c(c(O)c1C2=O)C[C@@](O)(C(=O)CO)C[C@@H]3O[C@H]1C[C@H](N)[C@H](O)[C@H](C)O1 [DOXORUBICIN] | 2.7 µg/mL (≈ 4.97 µM) | 0.1 µg/mL (≈ 0.184 µM) | 0.1 µg/mL (≈ 0.184 µM)
21 | C/C=C/COc1ccc(/C=C/C)cc1OC | > 10 µg/mL | > 10 µg/mL | –
22 | COc1ccc(/C=C/C(=O)c2ccccc2)cc1O | 1 µg/mL (≈ 3.93 µM) | 1 µg/mL (≈ 3.93 µM) | 3.5 µg/mL (≈ 13.8 µM)
23 | C/C=C/c1ccc(OC/C=C(\C)CC/C=C(\C)CCC=C(C)C)c(OC)c1 | > 10 µg/mL | > 10 µg/mL | –
24 | CCCOc1ccc(/C=C/C(C)=O)cc1OC | 4.2 µg/mL (≈ 17.9 µM) | 6.5 µg/mL (≈ 27.7 µM) | 5.8 µg/mL (≈ 24.8 µM)
25 | C/C=C/c1ccc(OCCC)c(OC)c1 | > 10 µg/mL | > 10 µg/mL | –
26 | COc1cc(/C=C/C(=O)CC(=O)/C=C/c2ccc(O)c(OC)c2)ccc1O [CURCUMIN] | 3.1 µg/mL (≈ 8.42 µM) | 5.5 µg/mL (≈ 14.9 µM) | 5.2 µg/mL (≈ 14.1 µM)
27 | COc1ccc(/C=C/C(C)=O)c(O)c1 | 4 µg/mL (≈ 20.8 µM) | 3.8 µg/mL (≈ 19.8 µM) | 3.5 µg/mL (≈ 18.2 µM)
28 | COc1cc(/C=C/C(C)=O)ccc1OCCC(C)C | 3.2 µg/mL (≈ 12.2 µM) | 3.6 µg/mL (≈ 13.7 µM) | 7.2 µg/mL (≈ 27.4 µM)
29 | COc1ccc(/C=C/C(=O)c2ccccc2)c(O)c1 | 2 µg/mL (≈ 7.87 µM) | 2 µg/mL (≈ 7.87 µM) | 3.8 µg/mL (≈ 14.9 µM)
30 | COc1cc(/C=C/C(C)=O)ccc1OCC=C(C)C | 3.5 µg/mL (≈ 13.4 µM) | 5.7 µg/mL (≈ 21.9 µM) | 3.8 µg/mL (≈ 14.6 µM)

Reference: ChEMBL document CHEMBL1158080, “Dehydrozingerone, chalcone, and isoeugenol analogues as in vitro anticancer agents” (J Nat Prod, 2006)
